This is an account of results in paper PMC10988555, “Exploiting Co(III)-Cyclopentadienyl Complexes To Develop Anticancer Agents” (Inorganic Chemistry, 2024).

By IC50 is commonly meant the point on the concentration scale where inhibition reaches its midpoint. Read a high IC50 as a need for much substance.

Data set [1] has as its system A2780 (human ovarian carcinoma) cell line. Briefly: Antiproliferative activity, MTS assay, A2780. In kind it is cell-based. To be noted: for IC50: 48 h exposure, MTS assay; for Selectivity index (SI) of ligands, A2780: Table S3, values with * calculated taking fibroblast IC50 as 100 µM (minimal value). The procedure:
(§1) Human colorectal carcinoma cell line (HCT116), human breast cancer cell lines (MDA-MB-231 and MCF-7), and normal human primary dermal fibroblasts neonatal (PCS-201-010) cell line were grown in DMEM (Dulbecco’s modified Eagle’s medium) (Invitrogen Corp., Grand Island, NY, USA) supplemented with 10% (v/v) fetal bovine serum and 1% (v/v) antibiotic/antimycotic solution (Invitrogen Corp.). The human ovarian carcinoma (A2780) cell line was cultivated using RPMI (Roswell Park Memorial Institute) medium supplemented as in DMEM medium. The supplemented medium is named a complete medium. Cells were grown in an incubator with a humidified atmosphere at 5% (v/v) CO2 and 37 °C. All cell lines were purchased from ATCC (ATCC, American Type Culture Collection).
(§2) The evaluation of the cytotoxic potential of complexes 1–4 was obtained through in vitro measurements of the antiproliferative activity of these complexes. Cells were plated in 96-well plates at 7.5 × 10^4 cells/mL and incubated at 37 °C with 5% (v/v) CO2. After 24 h, the culture medium was replaced with fresh medium (100 μL) containing 0.1–50 μM of the different complexes and incubated for 48 h in tumor cell lines or containing 0.1–100 μM of the different complexes and incubated for 48 h in fibroblasts. […] The fibroblast cell line was used as a control of the cytotoxicity of the complexes for healthy cells. Cell viability was evaluated using Cell Titer 96 Aqueous Non-Radioactive Cell Proliferation Assay (Promega, Madison, WI, USA) using 3-(4,5-dimethylthiazol-2-yl)-5-(3-carboxymethoxyphenyl)-2-(4-sulfophenyl)-2H-tetrazolium inner salt (MTS), as described previously.[60] In metabolically active cells, enzymes present in the mitochondria catalyze a reaction in which NADPH/NADH is produced. These enzymes reduce the MTS reagent into a brownish product, Formazan, which can be quantified by measuring the absorbance at 490 nm. The quantity of formazan produced is directly proportional to the number of viable cells in the culture. This quantification was executed with a Biorad microplate reader Model 680 (Bio-Rad, Hercules, CA, USA). Half maximal inhibitory concentration (IC50) was calculated using GraphPad Prism 6 (GraphPadSoftware). We have calculated the ratio between the IC50 of fibroblasts and the IC50 of HCT116, A2780, MDA-MB-231, or MCF-7 cell lines for complexes 1–4 that was named herein as the Selectivity index (SI). To ensure the solubility of the complexes in all biological assays, complex solutions were freshly prepared and well solubilized before addition to the cells.

Data set [2] has as its system HCT116 (human colorectal carcinoma) cell line. Briefly: Antiproliferative activity, MTS assay, HCT116. In kind it is cell-based. To be noted: for IC50: 48 h exposure, MTS assay; for Selectivity index (SI) of ligands, HCT116: Table S3, values with * calculated taking fibroblast IC50 as 50 µM (minimal value). The protocol: as §1, §2
In data set [3] the test system is normal human primary dermal fibroblasts. Briefly: Antiproliferative activity, MTS assay, healthy fibroblasts. It counts as cell-based. To be noted: 48 h exposure, healthy human cells. The procedure: as §1, §2
Background: Tetrazolium dyes change colour on reduction, which living cells bring about.

In data set [4] the test system is A2780 cell line. Briefly: Autophagy induction, flow cytometry. It counts as cell-based, human. To be noted: A2780, 48 h; complexes at IC50, DOX 0.4 μM, cisplatin 5 μM; rapamycin 500 nM for 15 h. The protocol:
The autophagy induced by complexes 2–4 was evaluated using the Autophagy Assay Kit (ab139484, Abcam, Cambridge, United Kingdom) according to the manufacturer’s instructions. For this, the A2780 cell line was seeded at a density of 2 × 10^5 cells/well in 6-well plates and incubated for 24 h at the conditions mentioned before. […] The positive control Rapamycin at 500 nM was incubated for only 15 h. After 48 h incubation, the cells were washed with PBS 1×, detached with TE, and treated with the Autophagy detection kit (Abcam, Cambridge, UK) according to the manufacturer’s instructions. The evaluation of autophagy induction was done through the Attune acoustic focusing flow cytometer (ThermoFisher Scientific) and respective software.
On the technique in general: A flow cytometer gives signals particle by particle.

In data set [5] the test system is A2780 cells. Briefly: Cell cycle progression (PI flow cytometry, double thymidine block). In kind it is cell-based, human. To be noted: A2780, 24 h; complexes at IC50, DOX 0.4 μM, cisplatin 5 μM. The procedure: The interference of the copper complexes 2–4 in the cell cycle progression was evaluated in A2780 cells, seeded in 6-weel plates, with a density of 2 × 10^5 cells/well, and incubated for 8 h at the same conditions as described above. After that incubation time, the cells were synchronized in early S-phase with a 2 mM thymidine solution (Sigma, St. Louis, USA) for a 16 h period. Media with thymidine was replaced by fresh media and, after 8 h, another 2 mM thymidine solution was added to the wells (double thymidine block) and incubated for 16 h. […] Cells were incubated for 9, 18, or 24 h, and, at each hour, the cells were treated with TE and centrifuges at 650 × g for 5 min at 4 °C. The pellet was resuspended in PBS 1× and centrifuged at 3000 × g for 5 min at 4 °C. Later, the pellet was resuspended in 100 μL of PBS 1×, and 1 mL of a solution of 80% (v/v) ethanol was gently added to the cells. Cells were stored at 4 °C for at least 12 h and then centrifuged for 10 min at 7500 × g at 4 °C, treated with 250 μL of 50 μg/mL RNase A, and incubated for 30 min at 37 °C. After incubation, 100 μL of PI (25 μg/mL) was added to the cells as well as 650 μL of PBS 1×. The DNA content was evaluated on an Attune Acoustic Focusing Flow Cytometer (ThermoFisher Scientific) and results were analyzed by the respective software.

For data set [6], the system named is MDA-MB-231 (human breast cancer) cell line. Briefly: Antiproliferative activity, MTS assay, MDA-MB-231. In kind it is cell-based. To be noted: 48 h exposure. The protocol: as §1, §2
The subject of data set [7] is MCF-7 (human breast cancer) cell line. Briefly: Antiproliferative activity, MTS assay, MCF-7. In kind it is cell-based. To be noted: 48 h exposure, MTS assay. The protocol: as §1, §2
Data set [8] can be described thus: Octanol-water partition coefficient, shake-flask method. To be noted: room temperature. In kind it is physicochemical. The procedure: The lipophilicity of the CoCp complexes was estimated by the shake-flask method.[54] Before the assays, n-octanol was vigorously mixed with distilled water for 24 h at room temperature to promote solvent saturation of both phases. After separating the phases, the complexes were dissolved in the n-octanol phase to obtain solutions 1.0 × 10^–5 to 2.5 × 10^–4 M. Then, each solution was equilibrated with water for 4 h in a mechanical shaker, at a phase ratio of 2 mL n-octanol:2 mL water. Afterward, the aqueous and octanol layers were carefully separated by centrifugation (5000 rpm, 10 min), and the UV–vis absorption spectra of the complexes were recorded in the n-octanol phase. For each sample, the concentration was determined by using a calibration curve in n-octanol. All experiments were performed in triplicate for each complex, being the averages used for calculation purposes. Finally, the values of the partition coefficients were calculated by resorting to the following eq (eq 1): [drawing 1] 1 where logPoct/water represents the octanol–water partition coefficient, [complex]oct represents the concentration of the complex in the n-octanol phase, and [complex]water represents the concentration of the complex in the water phase.

The subject of data set [9] is DNA of A2780 cells. Briefly: Single-cell gel electrophoresis (comet assay). In kind it is cell-based, human. To be noted: A2780; complexes 10× IC50 for 12 h; H2O2 0.05% for 30 min at RT. The protocol:
A2780 cells were seeded in 6-well plates with a density of 1 × 10^6 cells/well and incubated for 24 h in an incubator with a humidified atmosphere at 5% (v/v) CO2 and 37 °C. […] The complexes and DMSO were incubated at 37 °C for 12 h and H2O2 for 30 min at RT. Cells were harvested with a cell scraper and solutions with 1 × 10^5 cells/mL in PBS were prepared. It was withdrawn 10 μL from the solutions and added to 90 μL of 1.5% (w/v) low melting point agarose in 1× PBS and dropped on the slides prepared previously with a coating of 1.5% (w/v) agarose (normal melting point agarose) in 1× TAE buffer. After drying at 4 °C for 15 min, the slides were dipped into lysis solution (450 mM NaCl, 3.72% EDTA, 5 mM Tris; to which 10% (v/v) DMSO and 1% (v/v) Triton-X were added just before use) for 1 h at 4 °C, followed by their being dipped for 40 min into cold electrophoresis solution (1 mM EDTA, 300 mM NaOH, pH 13). Electrophoresis was performed at 4 °C for 30 min at 25 V using a Sub-Cell model 96 apparatus (Bio-Rad). Afterward, slides were placed in 0.1 M Tris–HCl buffer (pH 7.5) at 4 °C for 15 min for neutralization, followed by 15 min in methanol at 4 °C and drying at 37 °C. For visualization of comets, slides were hydrated with distilled water at 4 °C for 30 min, stained with 20 μL of GelRed working solution (3×), and covered with new coverslips. The slides were observed under a Ti–U Eclipse inverted microscope (Nikon Instruments, Japan) and analyzed by CometScore version 2.1 (TriTek). About 100 cells per sample were analyzed. The percentage of DNA in the tail was used as a measure of the total DNA strand breakage.

Molecules are shown by their SMILES. A value given as a limit tells only on which side of the number the result lay.

As to `c1ccc(-c2ccccn2)nc1` [bipy, 2,2′-bipyridine], the IC50 is greater than 50 µM in [1] (Homo sapiens, A2780); greater than 50 µM in [2] (Homo sapiens, HCT-116); greater than 50 µM in data set [3] (Fibroblast).

With `c1ccc(P(c2ccccc2)c2ccccc2)cc1` [PPh3, triphenylphosphane], the IC50 in data set [1] (Homo sapiens, A2780) was 37.8 ± 0.1 µM; in [2] (Homo sapiens, HCT-116), greater than 50 µM; in [3] (Fibroblast), greater than 50 µM. The “Selectivity index (SI) of ligands, A2780” value in [1] is 1.3.

Turning to `N.N.[Cl][Pt][Cl]` [cisplatin, reference compound], the half-inhibitory concentration (IC50) in [1] is 1.9 ± 0.2 µM; in data set [2] it was 15.6 ± 5.3 µM. For the same molecule, in data set [4], the levels of autophagy was found to be 96.7%. Moreover, the “% of cells in the G2/M phase” value in data set [5] was determined as 31.3%.

`O=[C]=[Co]([I])([I])[CH]1C=CC=C1` [[CoCp(CO)I2]]: the half-maximal inhibitory concentration (IC50) in data set [1] was 29.9 ± 0.1 µM; in data set [2], greater than 50 µM; in data set [3], greater than 50 µM. Further, the “Selectivity index (SI) of ligands, A2780” value in data set [1] is listed as 1.7.

For the molecule `O=S(=O)([O-])C(F)(F)F.O=S(=O)([O-])C(F)(F)F.[Co+3].c1cc[cH-]c1.c1ccc(-c2ccccn2)nc1.c1ccc(P(c2ccccc2)c2ccccc2)cc1` [Complex 1, [Co(η^5-C5H5)(PPh3)(bipy)][(CF3SO3)2]], the IC50 was 18.1 ± 0.1 µM in data set [1]; greater than 50 µM in data set [2]; greater than 50 µM in data set [6]; greater than 50 µM in data set [7]; greater than 100 µM in data set [3]. The “logP (n-octanol/water partition coefficient)” value in data set [8] was −0.67 ± 0.02.

With `Cc1ccnc(-c2cc(C)ccn2)c1` [Me2bipy, 4,4′-dimethyl-2,2′-bipyridine], the half-inhibitory concentration (IC50) in [1] (Homo sapiens, A2780) is 17.6 ± 0.1 µM; in [2] (Homo sapiens, HCT-116) it was 12.4 ± 0.2 µM; in data set [3] (Fibroblast), greater than 50 µM. In addition, the “Selectivity index (SI) of ligands, A2780” value in [1] is recorded as 2.8. Further, the “fold less cytotoxic than Phen and NH2phen ligands” value in data set [1] (free ligand, A2780 and HCT116) is reported as “about 10 fold”. Further, the “Selectivity index (SI) of ligands, HCT116” value (“Selectivity index … HCT116” below) in data set [2] is on record as 4.0.

For `c1cnc2c(c1)ccc1cccnc12` [Phen, 1,10′-phenanthroline], the IC50 is 2.4 ± 0.05 µM in [1] (Homo sapiens, A2780); 4.1 ± 0.04 µM in [2] (Homo sapiens, HCT-116); 50.1 ± 0.1 µM in [3] (Fibroblast). The “Selectivity index (SI) of ligands, A2780” value in [1] is 20.9. In data set [2], the “Selectivity index … HCT116” value was 12.4.

Take `OO` [hydrogen peroxide, reference compound]: the “% of DNA in the tail” value in data set [9] turned out to be 73%.

On to `CO[C@H]1C[C@@H]2CC[C@@H](C)[C@@](O)(O2)C(=O)C(=O)N2CCCC[C@H]2C(=O)O[C@H]([C@H](C)C[C@@H]2CC[C@@H](O)[C@H](OC)C2)CC(=O)[C@H](C)/C=C(\C)[C@@H](O)[C@@H](OC)C(=O)[C@H](C)C[C@H](C)/C=C/C=C/C=C/1C` [rapamycin, Rapamycin, reference compound], for which, in data set [4], the levels of autophagy turned out to be 72.93%.

Consider `COc1cccc2c1C(=O)c1c(O)c3c(c(O)c1C2=O)C[C@@](O)(C(=O)CO)C[C@@H]3O[C@H]1C[C@H](N)[C@H](O)[C@H](C)O1` [doxorubicin, reference compound], for which the IC50 in [1] (Homo sapiens, A2780) was determined as 0.1 ± 0.1 µM; in data set [2] (Homo sapiens, HCT-116) it was 0.5 ± 0.1 µM. Besides, the levels of autophagy in data set [4] came out at 84.1%. Besides, the “% of cells in the G2/M phase” value in data set [5] was 77.9%.

For `Nc1cc2cccnc2c2ncccc12` [NH2phen, 5-amino-1,10′-phenanthroline], the 50% inhibitory concentration (IC50) in data set [1] (Homo sapiens, A2780) is 1.9 ± 0.08 µM; in data set [2] (Homo sapiens, HCT-116) it was 2.3 ± 0.06 µM; in data set [3] (Fibroblast) it was 29.9 ± 0.4 µM. For the same molecule, the “Selectivity index (SI) of ligands, A2780” value in [1] is listed as 15.2. Further, in [2], the “Selectivity index … HCT116” value was 13.1.
